Source: PMC6858927 (Investigational new drugs, 2019)
Like-named read-outs stand apart in the source and are kept apart here.

[1] = Cohort A: 200mg, cytarabine, Daunorubicin (n=5), Total
[2] = Cohort A: 200mg, cytarabine, Daunorubicin (n=5), grade 1&2
[3] = Cohort A: 200mg, cytarabine, Daunorubicin (n=5), grade 3+
[4] = Cohort B Dose 2: 400mg, Decitabine (n=2), Total
[5] = Cohort B Dose 2: 400mg, Decitabine (n=2), grade 1&2
[6] = Cohort B Dose 2: 400mg, Decitabine (n=2), grade 3+

C1=C/COCc2cc(ccc2OCCN2CCCC2)Nc2nccc(n2)-c2cccc(c2)COC/1 [Pacritinib, 11-(2-pyrrolidin-1-yl-ethoxy)-14,19-dioxa-5,7,26-triaza-tetracyclo[19.3.1.1(2,6). 1(8,12)]heptacosa-1(25),2(26),3,5,8,10,12(27),16,21,23-decaene]
HYPOXIA, patients (%) [1]: 2 (40)
LUNG INFECTION, patients (%) [1]: 1 (20)
LYMPHOCYTE COUNT DECREASED, patients (%) [1]: 3 (60)
MUCOSITIS ORAL, patients (%) [1]: 2 (40)
NAUSEA, patients (%) [1]: 3 (60)
NEUTROPHIL COUNT DECREASED, patients (%) [1]: 2 (40)
PLATELET COUNT DECREASED, patients (%) [1]: 5 (100)
PLEURAL EFFUSION, patients (%) [1]: 1 (20)
PRURITUS, patients (%) [1]: 4 (80)
RASH MACULO-PAPULAR, patients (%) [1]: 2 (40)
RASH, patients (%) [1]: 2 (40)
RESPIRATORY FAILURE, patients (%) [1]: 2 (40)
VOMITING, patients (%) [1]: 0
WHITE BLOOD CELL DECREASED, patients (%) [1]: 4 (80)
ACTIVATED PARTIAL THROMBOPLASTIN TIME PROLONGED, patients (%) [2]: 1 (20)
ANEMIA, patients (%) [2]: 0
ANOREXIA, patients (%) [2]: 0
CONSTIPATION, patients (%) [2]: 0
DIARRHEA, patients (%) [2]: 3 (60)
DYSPNEA, patients (%) [2]: 1 (20)
EDEMA LIMBS, patients (%) [2]: 1 (20)
ELECTROCARDIOGRAM QT CORRECTED INTERVAL PROLONGED, patients (%) [2]: 4 (80)
FATIGUE, patients (%) [2]: 3 (60)
FEBRILE NEUTROPENIA, patients (%) [2]: 0
HYPERGLYCEMIA, patients (%) [2]: 1 (20)
HYPERTENSION, patients (%) [2]: 1 (20)
HYPOALBUMINEMIA, patients (%) [2]: 2 (40)
HYPOKALEMIA, patients (%) [2]: 1 (20)
HYPOPHOSPHATEMIA, patients (%) [2]: 0
HYPOXIA, patients (%) [2]: 0
LUNG INFECTION, patients (%) [2]: 0
LYMPHOCYTE COUNT DECREASED, patients (%) [2]: 1 (20)
MUCOSITIS ORAL, patients (%) [2]: 2 (40)
NAUSEA, patients (%) [2]: 3 (60)
NEUTROPHIL COUNT DECREASED, patients (%) [2]: 0
PLATELET COUNT DECREASED, patients (%) [2]: 0
PLEURAL EFFUSION, patients (%) [2]: 1 (20)
PRURITUS, patients (%) [2]: 4 (80)
RASH MACULO-PAPULAR, patients (%) [2]: 1 (20)
RASH, patients (%) [2]: 2 (40)
RESPIRATORY FAILURE, patients (%) [2]: 0
VOMITING, patients (%) [2]: 0
WHITE BLOOD CELL DECREASED, patients (%) [2]: 0
ELECTROCARDIOGRAM QT CORRECTED INTERVAL PROLONGED, patients (%) (Cohort A: 200mg, cytarabine, Daunorubicin (n=5), grade 1&2, listed as pacritinib): Four
ACTIVATED PARTIAL THROMBOPLASTIN TIME PROLONGED, patients (%) [3]: 0
ANEMIA, patients (%) [3]: 3 (60)
ANOREXIA, patients (%) [3]: 0
CONSTIPATION, patients (%) [3]: 0
DIARRHEA, patients (%) [3]: 0
DYSPNEA, patients (%) [3]: 0
EDEMA LIMBS, patients (%) [3]: 0
ELECTROCARDIOGRAM QT CORRECTED INTERVAL PROLONGED, patients (%) [3]: 0
FATIGUE, patients (%) [3]: 0
FEBRILE NEUTROPENIA, patients (%) [3]: 3 (60)
HYPERGLYCEMIA, patients (%) [3]: 0
HYPERTENSION, patients (%) [3]: 1 (20)
HYPOALBUMINEMIA, patients (%) [3]: 0
HYPOKALEMIA, patients (%) [3]: 0
HYPOPHOSPHATEMIA, patients (%) [3]: 1 (20)
HYPOXIA, patients (%) [3]: 2 (40)
LUNG INFECTION, patients (%) [3]: 1 (20)
LYMPHOCYTE COUNT DECREASED, patients (%) [3]: 2 (40)
MUCOSITIS ORAL, patients (%) [3]: 0
NAUSEA, patients (%) [3]: 0
NEUTROPHIL COUNT DECREASED, patients (%) [3]: 2 (40)
PLATELET COUNT DECREASED, patients (%) [3]: 5 (100)
PLEURAL EFFUSION, patients (%) [3]: 0
PRURITUS, patients (%) [3]: 0
RASH MACULO-PAPULAR, patients (%) [3]: 1 (20)
RASH, patients (%) [3]: 0
RESPIRATORY FAILURE, patients (%) [3]: 2 (40)
VOMITING, patients (%) [3]: 0
WHITE BLOOD CELL DECREASED, patients (%) [3]: 4 (80)
ACTIVATED PARTIAL THROMBOPLASTIN TIME PROLONGED, patients (%) [4]: 0
ANEMIA, patients (%) [4]: 2 (100)
ANOREXIA, patients (%) [4]: 0
CONSTIPATION, patients (%) [4]: 1 (50)
DIARRHEA, patients (%) [4]: 0
DYSPNEA, patients (%) [4]: 1 (50)
EDEMA LIMBS, patients (%) [4]: 0
ELECTROCARDIOGRAM QT CORRECTED INTERVAL PROLONGED, patients (%) [4]: 0
FATIGUE, patients (%) [4]: 0
FEBRILE NEUTROPENIA, patients (%) [4]: 0
HYPERGLYCEMIA, patients (%) [4]: 1 (50)
HYPERTENSION, patients (%) [4]: 1 (50)
HYPOALBUMINEMIA, patients (%) [4]: 0
HYPOKALEMIA, patients (%) [4]: 1 (50)
HYPOPHOSPHATEMIA, patients (%) [4]: 0
HYPOXIA, patients (%) [4]: 0
LUNG INFECTION, patients (%) [4]: 0
LYMPHOCYTE COUNT DECREASED, patients (%) [4]: 1 (50)
MUCOSITIS ORAL, patients (%) [4]: 0
NAUSEA, patients (%) [4]: 1 (50)
NEUTROPHIL COUNT DECREASED, patients (%) [4]: 1 (50)
PLATELET COUNT DECREASED, patients (%) [4]: 1 (50)
PLEURAL EFFUSION, patients (%) [4]: 0
PRURITUS, patients (%) [4]: 0
RASH MACULO-PAPULAR, patients (%) [4]: 0
RASH, patients (%) [4]: 0
RESPIRATORY FAILURE, patients (%) [4]: 0
VOMITING, patients (%) [4]: 1 (50)
WHITE BLOOD CELL DECREASED, patients (%) [4]: 1 (50)
ACTIVATED PARTIAL THROMBOPLASTIN TIME PROLONGED, patients (%) [5]: 0
ANEMIA, patients (%) [5]: 1 (50)
ANOREXIA, patients (%) [5]: 0
CONSTIPATION, patients (%) [5]: 1 (50)
DIARRHEA, patients (%) [5]: 0
DYSPNEA, patients (%) [5]: 1 (50)
EDEMA LIMBS, patients (%) [5]: 0
ELECTROCARDIOGRAM QT CORRECTED INTERVAL PROLONGED, patients (%) [5]: 0
FATIGUE, patients (%) [5]: 0
FEBRILE NEUTROPENIA, patients (%) [5]: 0
HYPERGLYCEMIA, patients (%) [5]: 1 (50)
HYPERTENSION, patients (%) [5]: 1 (50)
HYPOALBUMINEMIA, patients (%) [5]: 0
HYPOKALEMIA, patients (%) [5]: 0
HYPOPHOSPHATEMIA, patients (%) [5]: 0
HYPOXIA, patients (%) [5]: 0
LUNG INFECTION, patients (%) [5]: 0
LYMPHOCYTE COUNT DECREASED, patients (%) [5]: 0
MUCOSITIS ORAL, patients (%) [5]: 0
NAUSEA, patients (%) [5]: 0
NEUTROPHIL COUNT DECREASED, patients (%) [5]: 0
PLATELET COUNT DECREASED, patients (%) [5]: 0
PLEURAL EFFUSION, patients (%) [5]: 0
PRURITUS, patients (%) [5]: 0
RASH MACULO-PAPULAR, patients (%) [5]: 0
RASH, patients (%) [5]: 0
RESPIRATORY FAILURE, patients (%) [5]: 0
VOMITING, patients (%) [5]: 1 (50)
WHITE BLOOD CELL DECREASED, patients (%) [5]: 0
ACTIVATED PARTIAL THROMBOPLASTIN TIME PROLONGED, patients (%) [6]: 0
ANEMIA, patients (%) [6]: 1 (50)
ANOREXIA, patients (%) [6]: 0
CONSTIPATION, patients (%) [6]: 0
DIARRHEA, patients (%) [6]: 0
DYSPNEA, patients (%) [6]: 0
EDEMA LIMBS, patients (%) [6]: 0
ELECTROCARDIOGRAM QT CORRECTED INTERVAL PROLONGED, patients (%) [6]: 0
FATIGUE, patients (%) [6]: 0
FEBRILE NEUTROPENIA, patients (%) [6]: 0
HYPERGLYCEMIA, patients (%) [6]: 0
